Measurements published in US20230233569A1 (Revolution Medicines, Inc., priority 2020, published 2023).
“And” between values parts separate entries of the source, which are not always exact repeats. Equal values may be shown once. Read-outs that look alike come from different tables or passages of the source.

Experiments:
NRAS G12C = NRAS G12C (Homo sapiens, UniProt P01111+P62937, G12C); assay: Disruption of BRAF RBD interaction with Ras (FRET / MOA assay, with Cyclophilin A); format: biochemical; conditions: NRAS G12C; read-out: NRAS G12C FRET data IC50
Description: (§1) This protocol may also be executed substituting other Ras proteins or nucleotides.
(§2) The purpose of this biochemical assay was to measure the ability of test compounds to facilitate ternary complex formation between a nucleotide-loaded K-Ras isoform and Cyclophilin A; the resulting ternary complex disrupts binding to a BRAF^RBD construct, inhibiting K-Ras signaling through a RAF effector. Data is reported as IC50 values.
(§3) Compound was present in plate wells as a 10-point 3-fold dilution series starting at a final concentration of 30 μM. After incubation at 25° C. for 3 hours, a mixture of Anti-His Eu-W1024 and anti-GST allophycocyanin was then added to assay sample wells at final concentrations of 10 nM and 50 nM, respectively, and the reaction incubated for an additional 1.5 hours. […] Compounds that facilitate disruption of a K-Ras:RAF complex were identified as those eliciting a decrease in the TR-FRET ratio relative to DMSO control wells.
as §2, with “BRAF^RBDD” for “BRAF^RBD”

KRAS G13C = KRAS G13C (Homo sapiens, UniProt P01116+P62937, G13C); assay: as above; format: biochemical
Description: as §1, §2, §3
as §2, with “BRAF^RBDD” for “BRAF^RBD”

KRAS G12C = KRAS G12C (Homo sapiens, UniProt P01116+P62937, G12C); assay: as above; format: biochemical
Description: as §1, §2, §3
as §2, with “BRAF^RBDD” for “BRAF^RBD”

KRAS G12V = KRAS G12V (Homo sapiens, UniProt P01116+P62937, G12V); assay: as above; format: biochemical; conditions: KRAS G12V; read-out: KRAS G12V FRET data IC50
Description: as §1, §2, §3
as §2, with “BRAF^RBDD” for “BRAF^RBD”

KRAS G13D = KRAS G13D (Homo sapiens, UniProt P01116+P62937, G13D); assay: as above; format: biochemical; conditions: KRAS G13D; read-out: KRAS G13D FRET data IC50
Description: as §1, §2, §3
as §2, with “BRAF^RBDD” for “BRAF^RBD”

KRAS G12S = KRAS G12S (Homo sapiens, UniProt P01116+P62937, G12S); assay: as above; format: biochemical; conditions: read-out: KRAS G12S FRET data, IC50
Description: as §1, §2, §3
as §2, with “BRAF^RBDD” for “BRAF^RBD”

KRAS WT = KRAS WT (Homo sapiens, UniProt P01116+P62937); assay: as above; format: biochemical; conditions: KRAS WT; read-out: KRAS WT FRET data IC50
Description: as §1, §2, §3
as §2, with “BRAF^RBDD” for “BRAF^RBD”

KRAS G12D = KRAS G12D (Homo sapiens, UniProt P01116+P62937, G12D); assay: as above; format: biochemical; conditions: read-out: KRAS G12D FRET data, IC50
Description: as §1, §2, §3
as §2, with “BRAF^RBDD” for “BRAF^RBD”

NCI-H358 (K-Ras G12C) = assay: CellTiter-Glo cell viability assay, 5-day treatment; format: cell-based; conditions: Homo sapiens, NCI-H358, 120 h, 5-day treatment; read-out: H358 Cell Viability assay data (K-Ras G12C, IC50)
Method: Protocol: CellTiter-Glo® Cell Viability Assay
Note—The following protocol describes a procedure for monitoring cell viability of K-Ras mutant cancer cell lines in response to a compound of the invention. Other RAS isoforms may be employed, though the number of cells to be seeded will vary based on cell line used.
(§4) Test compounds (132.5 nL) were directly dispensed into the assay plates containing cells. […] On day 5, assay plates and their contents were equilibrated to room temperature for approximately 30 minutes. […] Luminescence was measured using the PerkinElmer Enspire. Data were normalized by the following: (Sample signal/Avg. DMSO)*100. The data were fit using a four-parameter logistic fit.
as §4, with “nl)” for “nL)”

[1] = read-out: KRAS G13C FRET data, IC50
[2] = read-out: KRAS G12C FRET data, IC50
[3] = KRAS G13C, read-out: KRAS G13C FRET data IC50
[4] = KRAS G12C, read-out: KRAS G12C FRET data IC50

Sequence of KRAS G12D (P01116 1-169 isoform P01116-2 G12D limits assumed): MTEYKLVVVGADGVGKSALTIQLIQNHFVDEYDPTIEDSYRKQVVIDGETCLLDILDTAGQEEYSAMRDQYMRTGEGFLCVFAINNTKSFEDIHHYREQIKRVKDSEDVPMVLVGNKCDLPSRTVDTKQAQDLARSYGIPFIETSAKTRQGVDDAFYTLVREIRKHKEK
Sequence of KRAS G12D (P62937 whole entry): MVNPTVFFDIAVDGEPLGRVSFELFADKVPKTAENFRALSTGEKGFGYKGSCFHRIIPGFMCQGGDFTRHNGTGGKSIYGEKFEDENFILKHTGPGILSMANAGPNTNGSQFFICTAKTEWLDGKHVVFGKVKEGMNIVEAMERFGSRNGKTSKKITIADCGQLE
Sequence of NRAS G12C (P01111 whole entry G12C): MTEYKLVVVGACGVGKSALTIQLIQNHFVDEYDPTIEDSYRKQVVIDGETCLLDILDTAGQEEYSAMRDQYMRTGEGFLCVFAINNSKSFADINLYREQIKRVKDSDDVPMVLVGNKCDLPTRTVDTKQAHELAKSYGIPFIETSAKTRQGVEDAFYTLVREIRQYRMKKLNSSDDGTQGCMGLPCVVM
Sequence of NRAS G12C (P62937 whole entry): as the sequence (P62937 whole entry) above
Sequence of KRAS G13C (P01116 1-169 isoform P01116-2 G13C): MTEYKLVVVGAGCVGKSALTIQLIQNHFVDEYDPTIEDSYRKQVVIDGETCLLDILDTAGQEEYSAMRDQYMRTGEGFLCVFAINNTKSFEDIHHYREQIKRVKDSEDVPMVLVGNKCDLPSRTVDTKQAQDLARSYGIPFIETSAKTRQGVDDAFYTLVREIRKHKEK
Sequence of KRAS G13C (P62937 whole entry): as the sequence (P62937 whole entry) above
Sequence of KRAS G12V (P01116 1-169 isoform P01116-2 G12V limits assumed): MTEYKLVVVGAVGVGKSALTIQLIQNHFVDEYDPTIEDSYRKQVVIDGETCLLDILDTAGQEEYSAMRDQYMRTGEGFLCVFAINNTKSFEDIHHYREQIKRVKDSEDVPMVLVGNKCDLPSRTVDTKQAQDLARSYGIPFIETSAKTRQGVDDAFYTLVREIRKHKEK
Sequence of KRAS G12V (P62937 whole entry): as the sequence (P62937 whole entry) above
Sequence of KRAS G12S (P01116 1-169 isoform P01116-2 G12S limits assumed): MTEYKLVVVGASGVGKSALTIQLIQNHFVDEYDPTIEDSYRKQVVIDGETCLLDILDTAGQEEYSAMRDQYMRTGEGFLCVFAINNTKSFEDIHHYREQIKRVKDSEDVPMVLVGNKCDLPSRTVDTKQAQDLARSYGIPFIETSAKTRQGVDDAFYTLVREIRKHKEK
Sequence of KRAS G12S (P62937 whole entry): as the sequence (P62937 whole entry) above
Sequence of KRAS G13D (P01116 1-169 isoform P01116-2 G13D limits assumed): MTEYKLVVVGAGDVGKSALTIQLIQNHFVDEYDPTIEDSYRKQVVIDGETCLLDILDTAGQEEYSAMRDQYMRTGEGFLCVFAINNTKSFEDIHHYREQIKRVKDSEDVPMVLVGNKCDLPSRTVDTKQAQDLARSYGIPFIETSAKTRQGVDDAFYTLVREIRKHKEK
Sequence of KRAS G13D (P62937 whole entry): as the sequence (P62937 whole entry) above
Sequence of KRAS WT (P01116 1-169 isoform P01116-2 limits assumed): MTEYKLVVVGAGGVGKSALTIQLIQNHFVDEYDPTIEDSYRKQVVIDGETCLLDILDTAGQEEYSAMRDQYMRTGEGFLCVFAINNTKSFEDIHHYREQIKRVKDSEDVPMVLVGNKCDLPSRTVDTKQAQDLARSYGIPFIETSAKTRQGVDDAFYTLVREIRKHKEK
Sequence of KRAS WT (P62937 whole entry): as the sequence (P62937 whole entry) above
Sequence of KRAS G12C (P01116 1-169 isoform P01116-2 G12C): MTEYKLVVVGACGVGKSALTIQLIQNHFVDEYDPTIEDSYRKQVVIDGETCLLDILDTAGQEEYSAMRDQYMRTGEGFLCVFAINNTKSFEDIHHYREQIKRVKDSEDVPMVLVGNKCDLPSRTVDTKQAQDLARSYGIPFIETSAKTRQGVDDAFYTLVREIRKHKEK
Sequence of KRAS G12C (P62937 whole entry): as the sequence (P62937 whole entry) above

| IC50 (NRAS G12C) | IC50 (KRAS G13C; [1]) | IC50 (KRAS G12C; [2]) | IC50 (KRAS G12V) | IC50 (KRAS G13D) | IC50 (KRAS G12S) | IC50 (KRAS WT) | IC50 (KRAS G12D) | IC50 (NCI-H358 (K-Ras G12C)) | IC50 (KRAS G13C; [3]) | IC50 (KRAS G12C; [4]) | Compound |
| --- | --- | --- | --- | --- | --- | --- | --- | --- | --- | --- | --- |
| 100 to 1000 nM and 1000 to 10000 nM | 100 to 1000 nM and > 10000 nM | 1000 to 10000 nM and 10 to 100 nM | 1000 to 10000 nM and 10 to 100 nM | 100 to 1000 nM and > 10000 nM | 100 to 1000 nM and > 10000 nM | 100 to 1000 nM and > 10000 nM | 1000 to 10000 nM and > 10000 nM |  |  |  | CCn1c(-c2cccnc2[C@H](C)OC)c2c3cc(ccc31)-c1cc(O)cc(c1)C[C@H](NC(=O)[C@H](C(C)C)N(C)C(=O)[C@H]1CCN(C(=O)OC(C)C)C1)C(=O)N1CCC[C@H](N1)C(=O)OCC(C)(C)C2 [Example A117] |
|  |  |  |  |  |  |  |  | 100 to 1000 nM |  |  | CCn1c(-c2cccnc2[C@H](C)OC)c2c3cc(ccc31)-c1csc(n1)C[C@H](NC(=O)[C@H](C(C)C)N1CCC3(CCN(C(=O)OC)C3)C1=O)C(=O)N1CCC[C@H](N1)C(=O)OCC(C)(C)C2 (stereo partly drawn) [Example A221] |
|  |  |  |  |  |  |  |  | 100 to 1000 nM |  |  | CCn1c(-c2cccnc2[C@H](C)OC)c2c3cc(ccc31)-c1cc(O)cc(c1)C[C@H](NC(=O)[C@H](C(C)C)N(C)C(=O)C1CCCC1)C(=O)N1CCC[C@H](N1)C(=O)OCC(C)(C)C2 [Example A219] |
| < 10 nM |  |  | 1000 to 10000 nM and > 10000 nM | 1000 to 10000 nM | 1000 to 10000 nM and > 10000 nM | 1000 to 10000 nM and > 10000 nM | 1000 to 10000 nM |  | 100 to 1000 nM and 10 to 100 nM | 10 to 100 nM and < 10 nM | CCn1c(-c2ccccc2CCOC)c2c3cc(ccc31)-c1cc(O)cc(c1)C[C@H](NC(=O)[C@H](C(C)C)N(C)C(=O)[C@H]1CCN(C(=O)C#CCN(C)C)C1)C(=O)N1CCC[C@H](N1)C(=O)OCC(C)(C)C2 [Example A038] |
| > 10000 nM | 1000 to 10000 nM | 1000 to 10000 nM | > 10000 nM | 1000 to 10000 nM | > 10000 nM | > 10000 nM | > 10000 nM |  |  |  | CCn1c(-c2cnccc2COC)c2c3cc(ccc31)-c1cc(O)cc(c1)C[C@H](NC(=O)[C@H](C(C)C)N(C)CC(F)(F)F)C(=O)N1CCC[C@H](N1)C(=O)OCC(C)(C)C2 [Example A77] |
|  | 1000 to 10000 nM | 100 to 1000 nM | 1000 to 10000 nM | 1000 to 10000 nM | 1000 to 10000 nM | 1000 to 10000 nM |  |  |  |  | CCC(=O)N1CC[C@H](C(=O)N(C)[C@H](C(=O)N[C@H]2Cc3cc(O)cc(c3)-c3ccc4c(c3)c(c(-c3ccccc3CCOC)n4CC)CC(C)(C)COC(=O)[C@@H]3CCCN(N3)C2=O)C(C)C)C1 [Example A34] |
| 1000 to 10000 nM |  |  | > 10000 nM | > 10000 nM | > 10000 nM | > 10000 nM |  |  | > 10000 nM | 1000 to 10000 nM | C=CC(=O)N1CC[C@H](C(=O)N(C)[C@H](C(=O)N[C@H]2Cc3cccc(c3)-c3ccc4c(c3)c(c(-c3cc(CN(C)C)cnc3[C@H](C)OC)n4CC)CC(C)(C)COC(=O)[C@@H]3CCCN(N3)C2=O)C(C)C)C1 [Example A523] |
| 10 to 100 nM |  |  | 100 to 1000 nM | 1000 to 10000 nM | 1000 to 10000 nM | 100 to 1000 nM | > 10000 nM |  | 10 to 100 nM | 10 to 100 nM | C=CS(=O)(=O)N1CC[C@H](C(=O)N(C)[C@H](C(=O)N[C@H]2Cc3cc(O)cc(c3)-c3ccc4c(c3)c(c(-c3cccnc3COC)n4CC)CC(C)(C)COC(=O)[C@@H]3CCCN(N3)C2=O)C(C)C)C1 [Example A069] |
| 100 to 1000 nM | 100 to 1000 nM | 100 to 1000 nM | 1000 to 10000 nM | 100 to 1000 nM | 100 to 1000 nM | 100 to 1000 nM | 100 to 1000 nM |  |  |  | CCn1c(-c2cnccc2COC)c2c3cc(ccc31)-c1cc(O)cc(c1)C[C@H](NC(=O)[C@H](C(C)C)N(C)C(=O)OC1CNC1)C(=O)N1CCC[C@H](N1)C(=O)OCC(C)(C)C2 [Example A81] |

| Compound | IC50 (NRAS G12C) | IC50 (KRAS G13C; [1]) | IC50 (KRAS G12C; [2]) | IC50 (KRAS G12V) | IC50 (KRAS G13D) | IC50 (KRAS G12S) | IC50 (KRAS WT) | IC50 (KRAS G12D) | IC50 (NCI-H358 (K-Ras G12C)) | IC50 (KRAS G13C; [3]) | IC50 (KRAS G12C; [4]) |
| --- | --- | --- | --- | --- | --- | --- | --- | --- | --- | --- | --- |
| CCn1c(-c2cccnc2[C@H](C)OC)c2c3cc(ccc31)-c1cc(O)cc(c1)C[C@H](NS(=O)(=O)CC1CCC3(CNC3)C1)C(=O)N1CCC[C@H](N1)C(=O)OCC(C)(C)C2 (mixture of isomers) [Example A188] | > 10000 nM |  | > 10000 nM |  | > 10000 nM | > 10000 nM | > 10000 nM |  |  |  |  |
